Target: FAS (Homo sapiens, UniProt P49327)
Assay: FAS assay (Assay #1 residual NADPH detection or Assay #2 CoA detection with CPM dye)
Type: biochemical
Conditions: in at least one experimental run; tested generally according to the assays described (assay #1 or #2 not specified)
Description: FAS assay FAS activity was measured through one of the two following assays.
Inhibition of FAS activity can be measured based on the detection of residual NADPH substrate after the FAS assay is quenched. This assay is run as a 10 μL endpoint assay in 384-well format, where the reaction contains 20 μM malonyl-CoA, 2 μM acetyl-CoA, 30 μM NADPH and 40 nM FAS in 50 mM sodium phosphate, pH 7.0. The assay is run by sequentially dispensing 5 μl of a malonyl-CoA solution, then enzyme solution (containing the acetyl-CoA, and NADPH) into a black, low volume assay plate (Greiner 784076) pre-dispensed with […] compound solutions in DMSO. The reaction is incubated at ambient temperature for 60 minutes, then quenched with 5 μL of a developing solution composed of 90 μM resazurin, 0.3 IU/ml diaphorase in 50 mM sodium phosphate, pH 7.0. The developed reaction is read on a Molecular Devices Analyst or Acquest (or equivalent) plate reader using a 530 nm excitation wavelength filter, a 580 nm emission filter, and 561 nm dichroic filter. The test compounds are prepared in neat DMSO at a concentration of 10 mM. For inhibition curves, compounds are diluted using a three fold serial dilution and tested at 11 concentrations (e.g. 25 μM-0.42 nM). Curves are analysed using Activityl)ase and XLfit, and results are expressed as pIC50 values.
Inhibition of FAS can also be quantified based on the detection of the CoA products with a thio-reactive coumarin dye. This assay is run as a 10 μL endpoint assay in 384-well format, where the reaction contains 20 μM malonyl-CoA, 20 μM acetyl-CoA, 40 μM NADPH and 2 nM FAS in 50 mM sodium phosphate, pH 7.0, and 0.04% Tween-20. The assay is run by adding 5 μL enzyme solution to a black, low volume assay plate (Greiner 784076) pre-dispensed with 100 nl compound solutions in DMSO. After 30 minutes, 5 μL substrate is added, and the reaction incubated at ambient temperature for an additional 60 minutes. The reaction is then quenched with 10 μL of 6M guanidine-HCl containing 50 μM CPM (7-diethylamino-3-(4′-maleimidylphenyl)-4-methylcoumarin (CPM; thio-reactive dye), and incubated for 30 minutes. The plate is read on an Envision (PerkinElmer) or equivalent plate reader using a 380 nm excitation wavelength filter, and a 486 nm emission filter. Data fitting and compound preparations are done as described above.

Chain of FAS (P49327 whole entry): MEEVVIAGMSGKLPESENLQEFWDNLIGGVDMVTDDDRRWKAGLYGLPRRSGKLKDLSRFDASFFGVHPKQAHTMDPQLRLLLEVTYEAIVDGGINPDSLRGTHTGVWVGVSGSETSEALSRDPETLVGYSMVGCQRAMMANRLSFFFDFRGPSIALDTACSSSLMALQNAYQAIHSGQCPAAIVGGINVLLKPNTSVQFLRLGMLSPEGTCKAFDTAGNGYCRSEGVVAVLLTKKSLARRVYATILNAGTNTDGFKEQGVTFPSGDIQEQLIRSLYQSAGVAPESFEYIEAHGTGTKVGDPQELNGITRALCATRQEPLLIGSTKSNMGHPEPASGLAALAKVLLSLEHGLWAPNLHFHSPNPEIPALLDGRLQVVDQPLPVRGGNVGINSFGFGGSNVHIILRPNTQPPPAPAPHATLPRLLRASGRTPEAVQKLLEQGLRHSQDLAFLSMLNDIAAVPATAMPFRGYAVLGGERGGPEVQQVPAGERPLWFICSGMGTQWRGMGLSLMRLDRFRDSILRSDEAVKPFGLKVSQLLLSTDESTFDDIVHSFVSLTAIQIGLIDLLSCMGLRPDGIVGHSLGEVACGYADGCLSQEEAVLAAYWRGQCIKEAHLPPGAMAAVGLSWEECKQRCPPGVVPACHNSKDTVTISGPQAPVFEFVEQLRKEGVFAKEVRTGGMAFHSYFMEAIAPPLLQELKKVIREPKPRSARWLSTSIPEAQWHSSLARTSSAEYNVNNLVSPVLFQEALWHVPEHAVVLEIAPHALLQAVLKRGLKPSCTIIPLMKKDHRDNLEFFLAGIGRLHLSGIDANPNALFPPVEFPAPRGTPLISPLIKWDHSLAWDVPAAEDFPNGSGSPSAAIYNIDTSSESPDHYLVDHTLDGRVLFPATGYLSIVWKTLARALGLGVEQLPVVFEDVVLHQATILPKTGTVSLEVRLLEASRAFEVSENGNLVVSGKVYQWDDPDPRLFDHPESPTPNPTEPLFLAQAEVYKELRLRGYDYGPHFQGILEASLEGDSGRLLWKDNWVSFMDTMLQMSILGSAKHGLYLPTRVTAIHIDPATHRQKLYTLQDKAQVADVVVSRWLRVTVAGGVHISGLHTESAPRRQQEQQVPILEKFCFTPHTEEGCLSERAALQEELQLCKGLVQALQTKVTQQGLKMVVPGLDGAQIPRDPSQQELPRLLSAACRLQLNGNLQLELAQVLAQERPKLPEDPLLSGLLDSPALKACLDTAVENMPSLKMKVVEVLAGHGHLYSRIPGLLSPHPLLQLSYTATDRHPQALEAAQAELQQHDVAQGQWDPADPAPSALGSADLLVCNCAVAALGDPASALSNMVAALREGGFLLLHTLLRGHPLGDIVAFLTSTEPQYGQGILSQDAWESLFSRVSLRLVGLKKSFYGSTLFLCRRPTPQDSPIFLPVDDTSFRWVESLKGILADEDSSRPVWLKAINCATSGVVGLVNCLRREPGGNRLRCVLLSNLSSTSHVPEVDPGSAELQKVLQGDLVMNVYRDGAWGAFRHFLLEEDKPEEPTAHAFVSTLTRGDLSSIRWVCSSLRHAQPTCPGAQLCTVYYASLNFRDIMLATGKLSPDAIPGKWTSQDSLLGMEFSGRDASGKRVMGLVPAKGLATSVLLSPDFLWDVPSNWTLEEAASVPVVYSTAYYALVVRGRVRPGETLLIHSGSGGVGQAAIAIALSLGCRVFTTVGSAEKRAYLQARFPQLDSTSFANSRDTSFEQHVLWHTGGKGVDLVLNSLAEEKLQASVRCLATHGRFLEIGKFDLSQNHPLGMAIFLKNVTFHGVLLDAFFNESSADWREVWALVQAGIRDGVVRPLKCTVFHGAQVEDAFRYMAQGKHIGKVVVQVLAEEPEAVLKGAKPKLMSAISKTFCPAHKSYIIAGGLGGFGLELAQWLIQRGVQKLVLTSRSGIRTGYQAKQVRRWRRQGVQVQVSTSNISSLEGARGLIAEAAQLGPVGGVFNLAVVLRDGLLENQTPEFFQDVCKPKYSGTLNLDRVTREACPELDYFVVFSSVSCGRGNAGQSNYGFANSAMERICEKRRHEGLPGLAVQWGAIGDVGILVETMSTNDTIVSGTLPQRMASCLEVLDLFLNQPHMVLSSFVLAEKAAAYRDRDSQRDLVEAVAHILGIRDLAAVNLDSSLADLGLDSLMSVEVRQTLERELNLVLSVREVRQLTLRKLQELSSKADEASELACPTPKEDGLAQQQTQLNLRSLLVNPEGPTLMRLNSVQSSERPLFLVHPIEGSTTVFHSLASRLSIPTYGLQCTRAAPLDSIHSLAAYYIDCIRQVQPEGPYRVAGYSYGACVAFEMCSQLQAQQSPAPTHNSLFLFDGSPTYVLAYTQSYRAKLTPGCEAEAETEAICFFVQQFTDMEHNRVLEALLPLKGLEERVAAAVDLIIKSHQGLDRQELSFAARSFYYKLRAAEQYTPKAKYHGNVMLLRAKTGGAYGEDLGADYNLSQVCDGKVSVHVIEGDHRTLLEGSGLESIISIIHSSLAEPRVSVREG

IC50	SMILES
142 nM	O=C(C1CC1)N1CC[C@@H](Cn2c(-c3ccc(-c4cnc5[nH]ccc5c4)cc3)nc3cnccc32)C1 [Example 54, 1-{[(3S)-1-(cyclopropylcarbonyl)-3-pyrrolidinyl]methyl}-2-[4-(1H-pyrrolo[2,3-b]pyridin-5-yl)phenyl]-1H-imidazo[4,5-c]pyridine]
60 nM	O=C(C1CC1)N1CC[C@@H](Cn2c(-c3ccc(-c4ccc5occc5c4)cc3)nc3cnccc32)C1 [Example 22, 2-[4-(1-benzofuran-5-yl)phenyl]-1-{[(3S)-1-(cyclopropylcarbonyl)-3-pyrrolidinyl]methyl}-1H-imidazol[4,5-c]pyridine]
9 nM	O=C(C1CC1)N1CC[C@@H](Cn2c(-c3ccc(-c4ccc5cc[nH]c5c4)cc3)nc3cccnc32)C1 [Example 35, 3-{[(3S)-1-(cyclopropylcarbonyl)-3-pyrrolidinyl]methyl}-2-[4-(1H-indol-6-yl)phenyl]-3H-imidazo[4,5-b]pyridine]
63 nM	Cc1cccc(-c2ccc(-c3nc4ncccc4n3C[C@@H]3CCN(C(=O)C4CC4)C3)cc2)c1 [Example 2, 1-{[(3S)-1-(cyclopropylcarbonyl)-3-pyrrolidinyl]methyl}-2-(3′-methyl-4-biphenylyl)-1H-imidazo[4,5-b]pyridine]
10 nM	O=C(C1CC1)N1CC[C@@H](Cn2c(-c3ccc(-c4ccc5scnc5c4)cc3)nc3cnccc32)C1 [Example 58, 2-[4-(1,3-benzothiazol-5-yl)phenyl]-1-{[(3S)-1-(cyclopropylcarbonyl)-3-pyrrolidinyl]methyl}-1H-imidazo[4,5-c]pyridine]
13 nM	O=C(C1CC1)N1CC[C@@H](Cn2c(-c3ccc(-c4cccc5[nH]ccc45)cc3)nc3cnccc32)C1 [Example 55, 1-{[(3S)-1-(cyclopropylcarbonyl)-3-pyrrolidinyl]methyl}-2-[4-(1H-indol-4-yl)phenyl]-1H-imidazo[4,5-c]pyridine]
1060 nM	CN(C)C(=O)N1CC[C@@H](Cn2c(-c3ccc(-c4ccccc4)cc3)nc3cnccc32)C1 [Example 19, (3S)-3-{[2-(4-biphenylyl)-1H-imidazo[4,5-c]pyridin-1-yl]methyl}-N,N-dimethyl-1-pyrrolidinecarboxamide]
19 nM	O=C(C1CC1)N1CC[C@@H](Cn2c(-c3ccc(-c4ccc5[nH]ccc5c4)cc3)nc3cnccc32)C1 [Example 25, 1-{[(3S)-1-(cyclopropylcarbonyl)-3-pyrrolidinyl]methyl}-2-[4-(1H-indol-5-yl)phenyl]-1H-imidazo[4,5-c]pyridine]
45 nM	COc1ccc(-c2ccc(-c3nc4cccnc4n3C[C@@H]3CCN(C(=O)C4CC4)C3)cc2)cc1 [Example 27, 3-{[(3S)-1-(cyclopropylcarbonyl)-3-pyrrolidinyl]methyl}-2-[4′-(methyloxy)-4-biphenylyl]-3H-imidazo[4,5-b]pyridine]
129 nM	O=C(C1CC1)N1CC[C@@H](Cn2c(-c3ccc(-c4ccccc4)cc3)nc3c(Cl)ncnc32)C1 [Example 46, 8-(4-biphenylyl)-6-chloro-9-{[(3S)-1-(cyclopropylcarbonyl)-3-pyrrolidinyl]methyl}-9H-purine]
